Earlier results on one compound are cited in patent US20080112918A1, “Method for treating gout and binding uric acid” (priority 2001, published 2008).

For the series the following is noted: administered orally; treatment of gouty arthritis.

For `COc1cc2c(c(OC)c1OC)-c1ccc(OC)c(=O)cc1[C@@H](NC(C)=O)CC2` [colchicine], the “people who cannot tolerate the drug because of side effects” value was 80%.
